Biological target: T1, APOL1 (Homo sapiens, UniProt O14791)
T1 sequence (O14791 1-398 S342G/I384M): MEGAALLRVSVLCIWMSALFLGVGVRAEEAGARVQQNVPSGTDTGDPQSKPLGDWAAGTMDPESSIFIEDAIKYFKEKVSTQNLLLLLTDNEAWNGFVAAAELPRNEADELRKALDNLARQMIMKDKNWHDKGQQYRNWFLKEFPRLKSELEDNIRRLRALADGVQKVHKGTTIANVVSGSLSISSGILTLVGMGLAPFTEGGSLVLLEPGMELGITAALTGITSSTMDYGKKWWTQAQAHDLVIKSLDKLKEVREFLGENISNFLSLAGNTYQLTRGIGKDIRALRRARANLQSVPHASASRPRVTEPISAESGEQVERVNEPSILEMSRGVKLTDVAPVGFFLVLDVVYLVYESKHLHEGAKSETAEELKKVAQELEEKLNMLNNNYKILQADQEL
Assay: Multi-Tox Assay (MultiTox-Fluor Multiplex Cytotoxicity Assay in tet-inducible APOL1 T-REx-HEK293 cells; Table 46 does not say which APOL1 variant G0/G1/G2)
Format: cell-based
Details: APOL1 variant not given; for IC50: IP50 = IC50 for cell proliferation

Row | SMILES | Multi-Tox Assay Max Activity (%) | IC50 | IC90
1 | C[C@H]1C[C@@]2(C[C@@H](c3cn(CCC(N)=O)nn3)N1)OCC(F)(F)c1cc(Cl)sc12 [Compound 328] | 100.0% | < 50 nM | 
2 | C[C@H]1C[C@@]2(C[C@@H](c3cn(Cc4ncc(F)cc4F)nn3)N1)OC[C@@H](O)c1cc(Cl)sc12 [Compound 298] | 95.0% | 50 to 500 nM | 
3 | C[C@H]1C[C@@]2(C[C@@H](c3cn(Cc4cnc5cnccn45)nn3)N1)OC[C@@H](O)c1cc(Cl)sc12 [Compound 243] | 98.0% | 50 to 500 nM | 
4 | C[C@H]1C[C@@]2(C[C@@H](c3cn(Cc4cnc5cnccn45)nn3)N1)OCC(F)(F)c1cc(Cl)sc12 [Compound 358] | 98.0% | < 50 nM | 
5 | CCn1cc(Cn2cc([C@@H]3C[C@]4(C[C@H](C)N3)OCC(F)(F)c3cc(Cl)sc34)nn2)cn1 [Compound 330] | 99.0% | < 50 nM | 
6 | CC(CO)CCn1cc([C@@H]2C[C@]3(C[C@H](C)N2)OCC(F)(F)c2cc(Cl)sc23)nn1 (some centres unmarked) [Compound 306] | 99.0% | > 500 nM | 
7 | C[C@H]1C[C@@]2(C[C@@H](c3cn(Cc4ccc(O)cc4)nn3)N1)OC[C@@H](O)c1cc(Cl)sc12 [Compound 259] | 100.0% | 50 to 500 nM | 
8 | C[C@H]1C[C@@]2(C[C@@H](c3cn(Cc4cccc(O)c4)nn3)N1)OCC(F)(F)c1cc(Cl)sc12 [Compound 320] | 95.0% | 50 to 500 nM | 
9 | C[C@H]1C[C@@]2(C[C@@H](c3cn(CC(=O)N4CCCCC4)nn3)N1)OCC(F)(F)c1cc(Cl)sc12 [Compound 356] | 99.0% | 50 to 500 nM | 50 to 500 nM
10 | C[C@H]1C[C@@]2(C[C@@H](c3cn(CCC#N)nn3)N1)OC[C@@H](O)c1cc(Cl)sc12 [Compound 286] | 98.0% | < 50 nM | 
11 | Cc1c(Cn2cc([C@@H]3C[C@]4(C[C@H](C)N3)OC[C@@H](O)c3cc(Cl)sc34)nn2)cnn1C [Compound 285] | 98.0% | 50 to 500 nM | 
12 | C[C@@H](CO)CCn1cc([C@@H]2CC3(C[C@H](C)N2)OCC(F)(F)c2cc(Cl)sc23)nn1 (stereo in doubt) [Compound 338] | 99.0% | < 50 nM | < 50 nM
13 | C[C@H]1C[C@@]2(C[C@@H](c3cn(Cc4ncnc5[nH]ccc45)nn3)N1)OCC(F)(F)c1cc(Cl)sc12 [Compound 350] | 99.0% | < 50 nM | 
14 | Cc1ccnn1CCn1cc([C@@H]2C[C@]3(C[C@H](C)N2)OCC(F)(F)c2cc(Cl)sc23)nn1 [Compound 315] | 98.0% | 50 to 500 nM | 
15 | COc1ccc(Cn2cc([C@@H]3C[C@]4(C[C@H](C)N3)OCC(F)(F)c3cc(Cl)sc34)nn2)cn1 [Compound 360] | 99.0% | 50 to 500 nM | 
16 | Cc1ccccc1C(O)Cn1cc([C@@H]2C[C@]3(C[C@H](C)N2)OC[C@@H](O)c2cc(Cl)sc23)nn1 (some centres unmarked) [Compound 261] | 100.0% | 50 to 500 nM | 

Row | SMILES | Multi-Tox Assay Max Activity (%) | IC50 | IC90
17 | C[C@H]1C[C@@]2(C[C@@H](c3cn(Cc4ccc(C#N)nc4)nn3)N1)OCC(F)(F)c1cc(Cl)sc12 [Compound 352] | 99.0% | < 50 nM | 
18 | C[C@H]1C[C@@]2(C[C@@H](c3cn(CC4(O)CC4)nn3)N1)OC[C@@H](O)c1cc(Cl)sc12 [Compound 233] | 100.0% | 50 to 500 nM | 
19 | Cc1nnc(Cn2cc([C@@H]3C[C@]4(C[C@H](C)N3)OC[C@@H](O)c3cc(Cl)sc34)nn2)[nH]1 [Compound 272] | 95.0% | 50 to 500 nM | 
20 | C[C@H]1C[C@@]2(C[C@@H](c3cn(Cc4ccccn4)nn3)N1)OC[C@@H](O)c1cc(Cl)sc12 [Compound 292] | 99.0% | 50 to 500 nM | 
21 | Cc1nc(Cn2cc([C@@H]3C[C@]4(C[C@H](C)N3)OCC(F)(F)c3cc(Cl)sc34)nn2)oc1C [Compound 337] | 99.0% | < 50 nM | 
22 | C[C@H]1C[C@@]2(C[C@@H](c3cn(CCc4ccncn4)nn3)N1)OC[C@@H](O)c1cc(Cl)sc12 [Compound 262] | 99.0% | 50 to 500 nM | 
23 | C[C@H]1C[C@@]2(C[C@@H](c3cn(CC4CCOC4)nn3)N1)OCC(F)(F)c1cc(Cl)sc12 (some centres unmarked) [Compound 311] | 99.0% | < 50 nM | 
24 | CC(CO)Cn1cc([C@@H]2C[C@]3(C[C@H](C)N2)OC[C@@H](O)c2cc(Cl)sc23)nn1 (some centres unmarked) [Compound 256] | 96.0% | 50 to 500 nM | 
25 | C[C@H]1C[C@@]2(C[C@@H](c3cn(Cc4cccc(CO)c4)nn3)N1)OC[C@@H](O)c1cc(Cl)sc12 [Compound 271] | 97.0% | < 50 nM | 
26 | C[C@H]1C[C@@]2(C[C@@H](c3cn(Cc4cocn4)nn3)N1)OCC(F)(F)c1cc(Cl)sc12 [Compound 331] | 98.0% | < 50 nM | 
27 | Cc1ncc(Cn2cc([C@@H]3C[C@]4(C[C@H](C)N3)OCC(F)(F)c3cc(Cl)sc34)nn2)cn1 [Compound 318] | 99.0% | < 50 nM | 
28 | C[C@H]1C[C@@]2(C[C@@H](c3cn(C[C@@H](O)CO)nn3)N1)OC[C@@H](O)c1cc(Cl)sc12 [Compound 246] | 97.0% | 50 to 500 nM | 
29 | Cc1c(Cn2cc([C@@H]3C[C@]4(C[C@H](C)N3)OCC(F)(F)c3cc(Cl)sc34)nn2)cnn1C [Compound 326] | 97.0% | 50 to 500 nM | 
30 | C[C@H]1C[C@@]2(C[C@@H](c3cn(Cc4ccc(C#N)cc4)nn3)N1)OC[C@@H](O)c1cc(Cl)sc12 [Compound 253] | 100.0% | < 50 nM | 
31 | C[C@H]1C[C@@]2(C[C@@H](c3cn(CCCS(C)(=O)=O)nn3)N1)OCC(F)(F)c1cc(Cl)sc12 [Compound 344] | 99.0% | < 50 nM | 
32 | C[C@H]1C[C@@]2(C[C@@H](c3cn(Cc4ccc(CO)cc4)nn3)N1)OC[C@@H](O)c1cc(Cl)sc12 [Compound 224, (2′S,4S,6′S,7S)-2-chloro-2′-[1-[[4-(hydroxymethyl)phenyl]methyl]triazol-4-yl]-6′-methyl-spiro[4,5-dihydrothieno[2,3-c]pyran-7,4′-piperidine]-4-ol] |  | 50 to 500 nM | 

Reference: patent publication US12421249B2, “Inhibitors of APOL1 and methods of using same” (Vertex Pharmaceuticals Incorporated, priority 2020, dated 2025)
